Values joined by “and” are separate entries in the source; they are usually repeats but may differ in a detail not shown here. Equal entries are not always repeated.
How the values were obtained:
[1] = system: HIV-infected patients under HAART regimen and presenting lipodystrophy syndrome; assay: Example 1: 3 months' administration to HIV-infected patients under HAART with lipodystrophy syndrome; type: in vivo, human; design: LDL / VLDL / COL. / TG / HDL: unit not given here; settings: 4 grams/day
Protocol: Four HIV-infected patients under HAART regimen and presenting lipodystrophy syndrome were administered 4 grams/day of a tuna oil with a DHA content of 70%. After three months' administration of DHA to said patients, the following discoveries were made, even taking account of the short period of administration: • 1. […] Mean reduction of 56% in the plasma triglycerides number. • 3. Mean reduction of 25% in the total plasma cholesterol number. • 4. Mean increase of 9% in the plasma HDL cholesterol number. • 5. Mean reduction of 18% in the plasma LDL cholesterol number.

[2] = system: patients treated with DHA (lipodystrophy); assay: Example 2: 300-day monitoring of the four patients treated with DHA; type: in vivo, human; design: COL. / VLDL / TG / HDL / LDL: unit not given here; settings: for COL. / HDL / LDL / TG / VLDL: individual patients 1-4
Description: From the four patients treated with DHA at elevated dosages (1.5 g/day), all of them have been monitored for 300 days and, although notable fluctuations are observed, especially regarding to the triglicerids (see Table 2), after 300 days of monitoring, the reduction's mean in the number of triglycerids with respect to the basal level is 66% and for the cholesterol is 28.0%.
All patients have improved their fat redistribution, from the point of view subjective and according to the skill's criterion.

[3] = 3 months, mean of four patients
[4] = after 3 months of treatment, individual patients 1-4
[5] = 1.5 g/day, after 300 days of monitoring, four patients

SMILES: CC/C=C\C/C=C\C/C=C\C/C=C\C/C=C\C/C=C\CCC(=O)O [DHA, docosahexaenoic acid]
- Mean increase in the plasma HDL cholesterol number [1, 3]: 9%
- Mean reduction in the plasma LDL cholesterol number [1, 3]: 18%
- Mean reduction in the plasma triglycerides number [1, 3]: 56%
- Mean reduction in the total plasma cholesterol number [1, 3]: 25%
- COL. [1, 4]: 5.46 and 9.48 and 3.82 and 9.9
- HDL [1, 4]: 1.57 and 0.91 and 1.05 and 0.98
- LDL [1, 4]: 3.43 and 3.35 and 1.97 and 6.67
- TG [1, 4]: 1 and 10.66 and 1.73 and 3.41
- VLDL [1, 4]: 0.46 and 3.74 and 0.8 and 1.82
- drop of HDL cholesterol [2, 5]: 11.6%
- reduction's mean in the cholesterol with respect to the basal level [2, 5]: 28.0%
- reduction's mean in the number of triglycerids with respect to the basal level [2, 5]: 66%
- COL. ([2]; 15 days of treatment): 6.37 and 9.74 and 3.92 and 8.73
- HDL ([2]; 15 days of treatment): 1.7 and 0.98 and 1.05 and 1.03
- LDL ([2]; 15 days of treatment): 4.14 and 6.07 and 1.86 and 5.35
- TG ([2]; 15 days of treatment): 1.16 and 5.98 and 3.11 and 5.18
- VLDL ([2]; 15 days of treatment): 0.53 and 2.61 and 1.01 and 2.35
- COL. ([2]; 30 days of treatment): 6.16 and 8.4 and 4.07 and 8.5
- HDL ([2]; 30 days of treatment): 1.79 and 0.86 and 1.06 and 1.16
- LDL ([2]; 30 days of treatment): 3.7 and 4.3 and 2.0 and 5.0
- TG ([2]; 30 days of treatment): 1.35 and 6.9 and 3.09 and 5.74
- VLDL ([2]; 30 days of treatment): 0.62 and 3.18 and 0.97 and 2.26
- COL. ([2]; 60 days of treatment): 5.46 and 9.48 and 3.82 and 9.9
- HDL ([2]; 60 days of treatment): 1.57 and 0.91 and 1.05 and 0.98
- LDL ([2]; 60 days of treatment): 3.43 and 3.35 and 1.97 and 6.67
- TG ([2]; 60 days of treatment): 1 and 10.66 and 1.73 and 3.41
- VLDL ([2]; 60 days of treatment): 0.46 and 3.74 and 0.8 and 1.82
- COL. ([2]; 120 days of treatment): 5.49 and 8.24 and 3.47 and 13.63
- HDL ([2]; 120 days of treatment): 1.56 and 1.08 and 1.16 and 0.7
- LDL ([2]; 120 days of treatment): 3.26 and 4.6 and 1.61 and 1.46
- TG ([2]; 120 days of treatment): 1.45 and 6.36 and 1.51 and 31.7
- VLDL ([2]; 120 days of treatment): 0.67 and 2.56 and 0.7 and 9.67
- COL. ([2]; 180 days of treatment): 6.15 and 9.64 and 3.76 and 13.21
- HDL ([2]; 180 days of treatment): 1.56 and 1.04 and 0.94 and 1.48
- LDL ([2]; 180 days of treatment): 3.38 and 2.3 and 1.5 and 2.09
- TG ([2]; 180 days of treatment): 2.63 and 15.75 and 2.87 and 16.37
- VLDL ([2]; 180 days of treatment): 1.21 and 4.38 and 132 and 3.97
- COL. ([2]; 240 days of treatment): 5.7 and 8.1 and 4.04 and 5.33
- HDL ([2]; 240 days of treatment): 1.67 and 0.98 and 1.09 and 1.17
- LDL ([2]; 240 days of treatment): 3.3 and 4.93 and 2.1 and 3.16
- TG ([2]; 240 days of treatment): 1.59 and 5.36 and 1.85 and 2.18
- VLDL ([2]; 240 days of treatment): 0.73 and 2.12 and 0.85 and 1
- COL. ([2]; 300 days of treatment): 6.01 and 9.3 and 4.34 and 4.27
- HDL ([2]; 300 days of treatment): 1.23 and 1.08 and 0.89 and 1.22
- LDL ([2]; 300 days of treatment): 4.06 and 5.31 and 2.7 and 2.42
- TG ([2]; 300 days of treatment): 1.57 and 7.21 and 1.62 and 1.36
- VLDL ([2]; 300 days of treatment): 0.72 and 2.92 and 0.75 and 0.63

— US8202906B2, “Use of docosahexanoic acid as active substance for the treatment of lipodystrophy” (Proyecto Empresarial Brudy, S.L., priority 2002, dated 2012)
